Test results reported in patent publication US20260027179A1, “ANTI-SYNUCLEINOPATHY PEPTIDE AND METHODS TO TREAT NEURODEGENERATIVE DISEASES” (University of British Columbia, priority 2021, published 2026).

Tested on: Iba-1
Assay: PFF mouse model of spreading synucleinopathy, microglial Iba-1 immunostaining
Format: in vivo
Settings: PFF-injected M83 mice, 40 mg/kg i.p. over 20 days, at three months, vs Tat-βsyn group
Experimental: M83 mice were injected intracerebrally (i.e.) into the right dorsal striatum with either 12.5 μg of α-synuclein pre-formed fibrils (PFFs) or PBS. Starting at 3 days prior to the PFF injection, mice were treated daily for 12 days with either Tat-βsyn or Tat-βsyn-degron peptide (40 mg/kg; i.p.) and once every other day for the subsequent 8 days (20 days in total, FIG. 5a). At the end of three months, coronal brain sections of the M83 mice were prepared and stained with antibodies against serine 129-phosphorylated α-synuclein (pS129syn), a marker of pathogenic synuclein aggregates, and Iba-1, a calcium-binding protein specifically expressed in macrophage and microglia as a marker of neuroinflammation.
PFFs were generated in-house based on the Volpicelli-Daley et al protocol. […] PFFs were characterized using a negative staining protocol and analyzed using an electron microscope. […] PFFs were visualized using a transmission electron microscope (FEI Tecnai 12 Bio Twin 120 kV TEM) coupled to a AMT XR80C CCD camera, and analyzed with ImageJ 1.5 and Matlab 2017b software. […]
Brains from M83 mice that received i.e. and i.p. injections were processed for immunohistochemistry. […] Coronal sections were analyzed using Fiji-ImageJ 1.5 software to detect the total area labeled with the peroxidase immunoreaction product. The results were analyzed using GraphPad Prism software.

## YGRKKRRQRRRRTKSGVYLVGRRRG (The sequence is synthesized (YGRKKRRQRRRRTKSGVYLVGRRRG)) [Tat-βsyn-degron]
  Iba-1 staining in pons: significantly reduced the level of Iba-1 staining
  Iba-1 staining in substantia nigra pars compacta: no observable effect
